Experimental data as given in patent US20020137929A1, “1 - (3-heterocyclylphenyl) isothiourea, -isourea, -guanidine and -amidine herbicidal agents” (Intellectual Property Department, BASF Aktiengesellschaft, priority 1998, published 2002).

Tests used:
[1] = tested on: SAGPY (Arrowhead (Pygmaea)); test: Postemergence weed control under flooded paddy conditions; format: in vivo, Sagittaria pygmaea; conditions: postemergence weeds
Method in brief: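 Flood-water application, about 0.0313–0.500 kg/ha a.i. in aqueous/acetone 50/50 v/v; water depth 1.5–3 cm throughout. Weeds 3–5 cm, rice 1.5–2.5 leaf. Greenhouse; 0–9 visual rating vs control at 3–4 wk.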

[2] = tested on: AMBEL (Ragweed, Common); test: Preemergence herbicidal evaluation; format: in vivo, Ambrosia artemisifolia; conditions: rated 4-5 weeks after treatment; for AMBEL rating: preemergence, 0-9 scale
Method in brief: (§1)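 Sown cups got a single aqueous acetone spray of test compound (roughly 0.0156–0.500 kg/ha) before seedlings emerged. Evaluation, 4–5 weeks on, used a 0–9 visual scale covering plant stand, vigor, size, malformation, chlorosis and general appearance compared with controls.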

[3] = tested on: ORYSAT (Rice, Tebonnet); test: Rice tolerance to post-transplant applications, flooded paddy conditions (Table III); format: in vivo, Oryza sativa, (L.) Tebonnet; conditions: for Herbicidal rating ORYSAT (rice tolerance): post-transplant rice, flooded paddy, rated 3-4 weeks after treatment
Procedure: (§2) Results of herbicide evaluation are expressed on a rating scale (0-9). The scale is based upon a visual observation of plant stand, vigor, malformation, size, chlorosis and overall plant appearance as compared with a control.
The tolerance of transplanted rice to post-transplanted herbicide applications is determined as follows: two ten-day-old rice seedlings (cv. Tebonnet) are transplanted into silt loam soil in 32 oz. plastic containers with a diameter of 10.5 cm and no drainage holes. After transplanting, the containers are flooded and the water level is maintained at 1.5 to 3 cm above the soil surface. Three days after transplanting, the flooded soil surface of the containers is treated with the selected aqueous/acetone 50/50 v/v mixture containing the test compounds to provide the equivalent of about 0.0313 to 0.500 kg/ha of active ingredient. The treated containers are placed on greenhouse benches, watered such that the water level is maintained as stated above, and cared for in accordance with conventional greenhouse procedures. Three to four weeks after treatment, the test is terminated and each container is examined and herbicidal effect rated according to the rating system provided in Example 37. The compounds evaluated are reported by compound number given in Example 37.
Plant species employed in this example are reported by header abbreviation, common name and scientific name.

[4] = tested on: ZEAMX (Corn, Field); test: Postemergence herbicidal evaluation; format: in vivo, Zea mays; conditions: for herbicidal rating ZEAMX / ZEAMX herbicidal rating: postemergence
Method in brief: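 ~2-wk seedlings; postemergence spray, 40 psi; vehicle 1:1 acetone:water + 0.5% Tween 20; rate ≈0.0156–0.500 kg/ha; greenhouse hold; scored 4–5 wk after treatment, 0–9 scale vs control; repeat tests averaged.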

[5] = tested on: GLXMAW (Soybean, Williams); test: Preemergence herbicidal evaluation; format: in vivo, Glycine max, (L.) Merr. cv Williams; conditions: rated 4-5 weeks after treatment; for GLXMAW rating: preemergence, 0-9 scale
Method in brief: as §1

[6] = tested on: ORYSAT (Rice, Tebonnet); test: Rice tolerance to post-transplant applications, flooded paddy conditions (Table IV); format: in vivo, Oryza sativa, (L.) Tebonnet
Source text: as §2
Plastic containers containing weeds which are 3 to 5 cm tall and rice seedlings at the 1.5 to 2.5 leaf stage are flooded with water. The water is maintained at 1.5 to 3 cm above the soil surface for the duration of the experiment. Test compounds are applied as aqueous/ acetone mixtures 50/50 v/v directly into the flood water to provide the equivalent of about 0.0313 to 0.500 kg/ha of active ingredient. The treated containers are placed on greenhouse benches and cared for in accordance with conventional greenhouse procedures. Three to four weeks after treatment, the test is terminated and each container is examined and herbicidal effect rated according to the rating system provided in Example 37. The compounds evaluated are reported by compound number given in Example 37.

[7] = tested on: ABUTH (Velvetleaf); test: Preemergence herbicidal evaluation; format: in vivo, Abutilon theophrasti; conditions: rated 4-5 weeks after treatment; for ABUTH rating: preemergence, 0-9 scale
Method in brief: as §1

[8] = rate 0.0313 kg/ha, rating scale 0-9
[9] = rate 0.0625 kg/ha, rating scale 0-9
[10] = rate 0.1250 kg/ha, rating scale 0-9
[11] = rate 0.2500 kg/ha, rating scale 0-9
[12] = rate 0.0156 kg/ha, rating scale 0-9

| SMILES | Preemergence herbicidal rating AMBEL [2, 8] | Preemergence herbicidal rating AMBEL [2, 9] | Preemergence herbicidal rating AMBEL [2, 10] | Preemergence herbicidal rating AMBEL [2, 11] | herbicidal effect rating, ORYSAT (rice tolerance) ([3]; in vivo) | herbicidal rating ZEAMX ([4]; rate 0.0156 kg/ha) | herbicidal rating ZEAMX ([4]; rate 0.0313 kg/ha) | herbicidal rating ZEAMX ([4]; rate 0.0625 kg/ha) | Preemergence herbicidal rating GLXMAW [5, 8] | Preemergence herbicidal rating GLXMAW [5, 9] | Preemergence herbicidal rating GLXMAW [5, 10] | Preemergence herbicidal rating GLXMAW [5, 11] | Preemergence herbicidal rating ABUTH [7, 8] | Preemergence herbicidal rating ABUTH [7, 9] | Preemergence herbicidal rating ABUTH [7, 10] | Preemergence herbicidal rating ABUTH [7, 11] | also measured |
| --- | --- | --- | --- | --- | --- | --- | --- | --- | --- | --- | --- | --- | --- | --- | --- | --- | --- |
| CCOP(=O)(CN1C(=O)CSC1=Nc1cc(-n2c(=O)cc(C(F)(F)F)n(C)c2=O)c(F)cc1Cl)OCC [Compound 35, Diethyl {{2-{{2-chloro-5-[3,6-dihydro-3-methyl-2,6-dioxo-4-(trifluoromethyl)-1(2H)-pyrimidinyl]-4-fluorophenyl}imino}-4-oxo-3-thiazolidinyl}methyl}phosphonate] |  |  |  |  |  |  |  |  |  |  |  |  |  |  |  |  | Herbicidal rating SAGPY ([1]; rate 0.1250 kg/ha, 3-4 weeks after treatment): 0.0; Herbicidal rating SAGPY ([1]; rate 0.2500 kg/ha, 3-4 weeks after treatment): 3.0; Preemergence herbicidal rating AMBEL ([2]; rate 0.0625 kg/ha): 0.0; Preemergence herbicidal rating AMBEL ([2]; rate 0.1250 kg/ha): 3.0; Preemergence herbicidal rating AMBEL ([2]; rate 0.2500 kg/ha): 9.0; Herbicidal rating ORYSAT (rice tolerance) ([3]; 0.1250 kg/ha): 2.0; Herbicidal rating ORYSAT (rice tolerance) ([3]; 0.2500 kg/ha): 3.0; Postemergence herbicidal rating ZEAMX ([4]; Rate 0.0158 kg/ha): 3.5; Postemergence herbicidal rating ZEAMX ([4]; Rate 0.0315 kg/ha): 3.5; Postemergence herbicidal rating ZEAMX ([4]; Rate 0.0630 kg/ha): 4.5; Preemergence herbicidal rating GLXMAW ([5]; rate 0.0625 kg/ha): 0.0; Preemergence herbicidal rating GLXMAW ([5]; rate 0.1250 kg/ha): 0.0; Preemergence herbicidal rating GLXMAW ([5]; rate 0.2500 kg/ha): 2.0; Herbicidal rating ORYSAT (rice tolerance) ([6]; rate 0.1250 kg/ha, flooded paddy, post-transplant rice, 3-4 weeks after treatment): 2.0; Herbicidal rating ORYSAT (rice tolerance) ([6]; rate 0.2500 kg/ha, flooded paddy, post-transplant rice, 3-4 weeks after treatment): 3.0; Preemergence herbicidal rating ABUTH ([7]; rate 0.0625 kg/ha): 9.0; Preemergence herbicidal rating ABUTH ([7]; rate 0.1250 kg/ha): 9.0; Preemergence herbicidal rating ABUTH ([7]; rate 0.2500 kg/ha): 9.0 |
| Cn1c(C(F)(F)F)cc(=O)n(-c2cc(N=C3SCC(=O)N3Cc3ccc(Br)cc3)c(Cl)cc2F)c1=O [Compound 148, 3-{5-{[3-(p-Bromobenzyl)-4-oxo-2-thiazolidinyl-idene]amino}-4-chloro-2-fluorophenyl}-1-methyl-6-(trifluoromethyl)-2,4(1H,3H)-pyrimidinedione] | 0.0 | 0.0 | 0.0 | 4.0 | 0.0 | 4.0 | 4.0 | 5.0 | 0.0 | 0.0 | 0.0 | 0.0 | 0.0 | 1.0 | 4.0 | 4.0 |  |
| COC(=O)C1(N2C(=O)CSC2=Nc2cc(-n3c(=O)cc(C(F)(F)F)n(C)c3=O)c(F)cc2Cl)CCCCC1 [Compound 81, Methyl 1-{2-{{2-chloro-5-[3,6-dihydro-3-methyl-2,6-dioxo-4-(trifluoromethyl)-1(2H)-pyrimidinyl]-4-fluorophenyl}imino}-4-oxo-3-thiazolidinyl}-cyclohexanecarboxylate] |  |  |  |  |  |  |  |  |  |  |  |  |  |  |  |  | Herbicidal rating SAGPY ([1]; Rate 0.0625 kg/ha, rated 3 to 4 weeks after treatment): 0.0; Herbicidal rating SAGPY ([1]; Rate 0.1250 kg/ha, rated 3 to 4 weeks after treatment): 0.0; Herbicidal rating SAGPY ([1]; Rate 0.2500 kg/ha, rated 3 to 4 weeks after treatment): 0.0; AMBEL rating ([2]; 0.0313 kg/ha): 6.0; AMBEL rating ([2]; 0.0625 kg/ha): 6.0; AMBEL rating ([2]; 0.1250 kg/ha): 9.0; AMBEL rating ([2]; 0.2500 kg/ha): 9.0; ORYSAT herbicidal effect rating (rice tolerance) ([3]; in vivo): 0.0; ZEAMX herbicidal rating ([4]; rate 0.0158 kg/ha): 6.5; ZEAMX herbicidal rating ([4]; rate 0.0315 kg/ha): 7.0; ZEAMX herbicidal rating ([4]; rate 0.0630 kg/ha): 7.0; GLXMAW rating ([5]; 0.0313 kg/ha): 0.0; GLXMAW rating ([5]; 0.0625 kg/ha): 2.0; GLXMAW rating ([5]; 0.1250 kg/ha): 1.0; GLXMAW rating ([5]; 0.2500 kg/ha): 3.0; Herbicidal rating ORYSAT (rice tolerance) ([6]; in vivo): 0.0; ABUTH rating ([7]; 0.0313 kg/ha): 9.0; ABUTH rating ([7]; 0.0625 kg/ha): 9.0; ABUTH rating ([7]; 0.1250 kg/ha): 9.0; ABUTH rating ([7]; 0.2500 kg/ha): 9.0 |
| Cn1c(C(F)(F)F)cc(=O)n(-c2cc(N=C3SCC(=O)N3Cc3ccc(S(N)(=O)=O)cc3)c(Cl)cc2F)c1=O [Compound 135, Alpha-{2-{{2-chloro-5-[3,6-dihydro-3-methyl-2,6-dioxo-4-(trifluoromethyl)-1(2H)-pyrimidinyl]-4-fluorophenyl}imino}-4-oxo-3-thiazolidinyl}-p-toluenesulfonamide] | 0.0 | 0.0 | 4.0 | 7.0 | 0.0 | 3.5 | 4.0 | 4.0 | 0.0 | 0.0 | 1.0 | 3.0 | 0.0 | 3.0 | 6.0 | 8.0 | Preemergence herbicidal rating AMBEL [2, 12]: 0.0; Preemergence herbicidal rating GLXMAW [5, 12]: 0.0; Preemergence herbicidal rating ABUTH [7, 12]: 0.0 |
| COc1ccc(CN2C(=O)CSC2=Nc2cc(-n3c(=O)cc(C(F)(F)F)n(C)c3=O)c(F)cc2Cl)cc1OC [Compound 134, 3-{4-Chloro-5-{[3-(3,4-dimethoxybenzyl)-4-oxo-2-thiazolidinylidene]amino}-2-fluorophenyl}-1-methyl-6-(trifluoromethyl)-2,4(1H,3H)-pyrimidinedione] |  |  | 0.0 | 3.0 | 2.0 | 3.5 | 4.5 | 4.5 |  |  | 0.0 | 0.0 |  |  | 0.0 | 7.0 |  |
| CSCCN1C(=O)CSC1=Nc1cc(-n2c(=O)cc(C(F)(F)F)n(C)c2=O)c(F)cc1Cl [Compound 157] | 0.0 | 0.0 | 0.0 | 1.0 | 0.0 | 7.0 | 7.0 | 7.0 | 1.0 | 0.0 | 2.0 | 4.0 | 0.0 | 0.0 | 4.0 | 6.0 |  |
